Results taken from PubChem BioAssay (NCI).
Values joined by “and” are separate entries in the source; they are usually repeats but may differ in a detail not shown here. Equal entries are not always repeated.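 Grown in 96-well plates, cells were treated for 48 hours with each compound at five concentrations. Insufficient inhibition: endpoint recorded as highest concentration tested. GI50: concentration for 50% inhibition of growth. TGI denotes the concentration required for complete inhibition of growth.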

Legend:
Experiment in all cases: NCI anticancer screen, dose series, 48 h
UO-31 renal = system: UO-31 renal
SR leukemia = system: SR leukemia
MCF7 breast = system: MCF7 breast
HOP-62 NSCLC = system: HOP-62 NSCLC
LOX IMVI melanoma = system: LOX IMVI melanoma
SW-620 colon = system: SW-620 colon
SNB-19 CNS = system: SNB-19 CNS
HL-60(TB) leukemia = system: HL-60(TB) leukemia
MALME-3M melanoma = system: MALME-3M melanoma
SF-268 CNS = system: SF-268 CNS

Row | Structure (SMILES) | GI50 (UO-31 renal) [µM] | TGI (UO-31 renal) [µM] | GI50 (SR leukemia) [µM] | GI50 (MCF7 breast) | TGI (MCF7 breast) [µM] | GI50 (HOP-62 NSCLC) [µM] | TGI (HOP-62 NSCLC) [µM] | GI50 (LOX IMVI melanoma) | TGI (LOX IMVI melanoma) [µM] | GI50 (SW-620 colon) | TGI (SW-620 colon) [µM] | GI50 (SNB-19 CNS) [µM] | TGI (SNB-19 CNS) [µM] | GI50 (HL-60(TB) leukemia) | TGI (HL-60(TB) leukemia) [µM] | GI50 (MALME-3M melanoma) | TGI (MALME-3M melanoma) | GI50 (SF-268 CNS) [µM] | TGI (SF-268 CNS) [µM] | TGI (SR leukemia) [µM]
1 | CCCCCCCCCCCCOC1C(C(COC2OC(C(O)CO)C3OC(C)(C)OC23)OC(=O)Nc2ccccc2)OC2OC(C)(C)OC21 (centres undefined) | 9.01 | 23.7 | < 0.0212 | 3.85 µM | 13.6 | 9.7 | 22.2 | 7.82 µM | 20.9 | 9.21 µM | 27.2 | 7.35 | 20.3 | 0.484 µM | 1.6 | 9.2 µM | 23.2 µM | 4.47 | 16.6 | 
2 | CC[C@]12C=CCN3CC[C@@]4(c5ccc(OC)cc5N(C)[C@H]4[C@@](O)(C(=O)OC)[C@@H]1OC(=O)CCCN1CCN(CCCC(=O)O[C@@H]4[C@]5(CC)C=CCN6CC[C@@]7(c8ccc(OC)cc8N(C)[C@H]7[C@@]4(O)C(=O)OC)[C@@H]65)CC1)[C@@H]32 | 1.1 | 2.33 | 0.252 | 0.548 µM | 1.96 | 1.28 | 2.81 | 0.399 µM | 1.5 | 1.6 µM | 3.21 | 1.23 | 2.59 | 0.464 µM | 1.85 | 1.6 µM | 3.11 µM | 0.919 | 2.38 | 0.738
3 | CNCc1cccc2c1OCCOCCOCCNS(=O)(=O)c1ccc(cc1)-c1cnc(N)c(n1)C(=O)N2 | 9.82 | 23.1 | 0.346 | 0.439 µM | 5.11 | 1.27 | 2.96 | 0.889 µM | 2.27 | 0.875 µM | 3.13 | 2.45 | 9.9 | 0.452 µM | 1.89 | 1.55 µM | 3.08 µM | 1.04 | 3.31 | 13.3
4 | C#CCCCCCC(=O)N[C@H]1C=C[C@@H]2/C=C(C)/C=C/[C@@H](C)[C@H]([C@H](C)[C@H](O)[C@@H](C)NC(C)=O)OC(=O)/C=C/C=C(C)\C=C\[C@]2(C)C1 | < 0.004 | 8.95 | < 0.004 | < 0.004 µM | > 40 | 0.0107 | > 40 | < 0.004 µM | < 0.004 | < 0.004 µM | > 40 | 0.0247 | > 40 | 0.0335 µM | 9.31 | 0.567 µM | 17.9 µM | 0.397 | > 40 | 9.53
5 | COc1ccc(-n2c(=O)c3ccccc3n(Cc3ccc(C(=O)NO)cc3)c2=O)cc1 | 6.58 | 21.5 | 2.86 | 2.68 µM | 76.4 | 2.29 | 6.19 | 1.76 µM | 3.24 | 2.13 µM | 6.97 | 2.96 | 18.5 | 3.51 µM | > 100 | 1.58 µM | 5.92 µM | 1.91 | 4.25 | > 100
6 | CC(=O)O[C@H]([C@H](OC(C)=O)[C@H](C)OC(C)=O)[C@@H](/C=C/[C@H]1CC=CC(=O)O1)OC(C)=O | > 100 | > 100 | 73.7 | 39 µM | > 100 | 48.5 | > 100 | 55.1 µM | > 100 | 37.6 µM | > 100 | 80.5 | > 100 | 59.4 µM | > 100 | > 100 µM | > 100 µM | 41.6 | > 100 | > 100
7 | Cn1cc(-c2ccc3c(c2)ncn3-c2cc(NS(=O)(=O)C3CC3)cc(-c3ccc(F)cc3F)c2)cn1 | 0.635 | 36.7 | 6 | 4.37 µM | 92.6 | 14.1 | > 100 | 5.75 µM | 42 | 39.1 µM | > 100 | 9.46 | > 100 | 11.9 µM | 45.4 | 22.7 µM | 63.8 µM | 3.01 | > 100 | > 100
8 | COc1cc(/C=C/C(=O)c2nc3cc(F)ccc3nc2C)cc(OC)c1OC | 7.07 | > 100 | 1.85 | 2.3 µM | > 100 | > 27.8 | > 100 | 2.84 µM | > 22.1 | 5.34 µM | > 100 | > 51.1 | > 100 | 1.78 µM |  | 1.71 µM | > 100 µM | 7.01 | > 100 | > 100
9 | CN(c1ccccc1)c1c2ccccc2nc2[nH]c3ccccc3c12 | 1.22 | 3.66 | 0.336 | 0.769 µM |  | 1.96 | 5.97 | 1.43 µM | 4 | 2.04 µM | 8.82 | 3.77 | 15.5 | 0.985 µM | 6.25 | 2.24 µM | 5.72 µM | 3.41 | 15.2 | > 100
10 | Cc1ccc(-c2nc([P+](c3ccccc3)(c3ccccc3)c3ccccc3)c(N3CCOCC3)o2)cc1 | 2.23 | 7.3 | 0.418 | 0.316 µM | 2.18 | 0.83 | 6.61 | 0.565 µM | 2.44 | 0.467 µM | 11.8 | 0.333 | 4.91 | 0.246 µM | 0.738 | 0.378 µM | 3.11 µM | 0.389 | 11 | 5.33
11 | O=S(=O)(O)C(c1ccccc1)C(O)c1ccccc1 (centres undefined) |  | > 100 |  |  | > 100 |  | > 100 |  | > 100 |  | > 100 |  | > 100 |  | > 100 |  | > 100 µM |  | > 100 | > 100
12 | CC(=O)O[C@H]1C[C@@H]2[C@@]3(C)CC[C@H]4C[C@@]4(C)[C@@H]3CC[C@@]2(C)C2=CCC3=C(COC3=O)[C@]21C | 32.1 | > 100 | > 100 | 24 µM | 89.8 | 17.5 | 36.4 | 17.6 µM | 36.5 | 19.4 µM | 43.6 | 24.3 | 69.7 | 52.7 µM | > 100 | 11 µM | 26.4 µM | 21 | 46.9 | > 100
13 | CNS(=O)(=O)Nc1nccc(Cc2c(C)c3ccc(Oc4ncccn4)cc3oc2=O)c1F |  | > 100 | > 100 | 57 µM and > 10 µM | > 100 |  | > 100 | 0.356 µM and 0.977 µM | > 100 | 0.0194 µM and 0.0159 µM | > 100 | > 48.4 | > 100 | 0.0449 µM and 0.00891 µM | > 100 | < 0.01 µM and 0.00211 µM | 0.0401 µM and 0.0217 µM | > 86 | > 100 | > 100
14 | Nc1cc(C(F)(F)F)c(-c2nc(N3CCOCC3)nc(N3CCOCC3)n2)cn1 | 0.111 | 2.08 | 1.04 | 0.113 µM | 19 | 0.643 | 16.2 |  | > 35.1 | 0.921 µM | > 100 | 2.11 | 44.5 | 0.381 µM | > 84.1 | 0.0983 µM | 0.561 µM | 0.476 | > 72.5 | 28.4
15 | O=C1[C@H](Cc2ccc(O)cc2)N2C(=O)CCN(C(=O)NCc3ccccc3)[C@H]2CN1Cc1cccc2ccccc12 | 11.3 | 77.9 | 3.19 | 6.02 µM | 39 | 3.22 | 19.1 | 1.43 µM | 14.4 | 4.49 µM | > 55 | 0.868 | > 100 | 4.84 µM | 27.3 | 1.9 µM | 9.46 µM | 1.81 | 15.5 | > 54.1
16 | COc1cc(NC(=O)COc2ccccc2)c(C(N)=O)cc1OC | 13.5 | > 100 | 0.515 | 0.661 µM | > 100 | 1.75 | 24.3 | 1.81 µM | > 100 | 0.646 µM | > 100 | 3.31 | 51.9 | 0.293 µM | 7.25 | 4 µM | > 100 µM | 6.77 | 45.7 | > 100
